Data reported in the NIST ThermoML archive (doi:10.1016/j.jct.2012.08.014).

Settings: Liquid, Vibrating tube method

CCC(O)CO (stereo unspecified) [1,2-butanediol]
mass density [kg/m3]
Settings	278.15 K	288.15 K	298.15 K	308.15 K	318.15 K	328.15 K	338.15 K	348.15 K	358.15 K
100 kPa	1013.4	1006.2	998.7	991.1	983.4	975.7	967.8	959.7	951.3
1000 kPa	1013.7	1006.5	999.1	991.5	983.8	976.2	968.3	960.2	952
5000 kPa	1015.7	1008.6	1001.2	993.7	986.1	978.6	970.7	962.8	954.6
10000 kPa	1018.1	1011.1	1003.8	996.5	988.9	981.5	973.9	966.2	958.1
15000 kPa	1020.5	1013.5	1006.3	999.1	991.7	984.4	976.8	969.2	961.4
20000 kPa	1022.8	1015.9	1008.8	1001.6	994.3	987.2	979.8	972.2	964.5
25000 kPa	1025	1018.2	1011.3	1004.1	997	989.9	982.6	975.2	967.5
30000 kPa	1027.2	1020.5	1013.6	1006.5	999.4	992.5	985.3	978	970.5
35000 kPa	1029.2	1022.7	1015.9	1008.9	1001.9	995.1	987.9	980.7	973.5
40000 kPa	1031.2	1024.7	1018.2	1011.2	1004.4	997.6	990.5	983.4	976.2
45000 kPa	1033.3	1026.7	1020.3	1013.5	1006.7	999.9	993.1	986.1	978.8
50000 kPa	1035.3	1028.8	1022.5	1015.7	1009	1002.2	995.5	988.6	981.4
55000 kPa	1037.3	1030.8	1024.5	1017.9	1011.3	1004.7	997.9	991.1	984
60000 kPa	1039.2	1033	1026.7	1020	1013.5	1006.9	1000.3	993.4	986.5
